This note sets out measurements from the NIST ThermoML archive (doi:10.1016/j.jct.2017.04.009).

The nature of the data set: xn = mol fraction of the nth substance listed. As to conditions: Liquid, pressure decay method, x1 = 0.

For the molecule `CCF` [fluoroethane] + CCCCCCn1cc[n+](C)c1.F[B-](F)(F)F, the binary diffusion coefficient runs as follows: (303.2 K, 101 kPa) 1.23e-10 m2/s; (313.2 K, 97.7 kPa) 1.91e-10 m2/s; (323.2 K, 104.5 kPa) 2.54e-10 m2/s; (333.2 K, 102.4 kPa) 3.36e-10 m2/s; (343.2 K, 101.6 kPa) 4.2e-10 m2/s.
For `FC(F)C(F)(F)F` [pentafluoroethane] + CCCCCC[n+]1ccn(C)c1.O=S(=O)([N-]S(=O)(=O)C(F)(F)F)C(F)(F)F, the binary diffusion coefficient reads like this: (303.2 K, 93.2 kPa) 1.02e-10 m2/s; (313.2 K, 94.5 kPa) 1.48e-10 m2/s; (323.2 K, 95.6 kPa) 2.24e-10 m2/s; (333.2 K, 95.7 kPa) 3.13e-10 m2/s; (343.2 K, 100.2 kPa) 4.21e-10 m2/s.
Take `FC(F)C(F)(F)F` [pentafluoroethane] + CCCCCCn1cc[n+](C)c1.F[B-](F)(F)F: the binary diffusion coefficient reads like this: (303.2 K, 151.8 kPa) 6.3e-11 m2/s; (313.2 K, 164 kPa) 1.24e-10 m2/s; (323.2 K, 169.7 kPa) 2.16e-10 m2/s; (333.2 K, 176.2 kPa) 2.95e-10 m2/s; (343.2 K, 172.3 kPa) 3.66e-10 m2/s.
